Test results reported in patent US6492137B1, “Response element compositions and assays employing same” (The Salk Institute for Biological Studies, priority 1989, dated 2002).

What follows are substances tested against T1, TRβ (Homo sapiens, UniProt P10828) (assay: ΔSV-CAT reporter cotransfection assay in CV-1 cells with TRβ expression plasmid, ±T3). Conditions: TRβ expression vector.
T1 sequence (P10828 1-461): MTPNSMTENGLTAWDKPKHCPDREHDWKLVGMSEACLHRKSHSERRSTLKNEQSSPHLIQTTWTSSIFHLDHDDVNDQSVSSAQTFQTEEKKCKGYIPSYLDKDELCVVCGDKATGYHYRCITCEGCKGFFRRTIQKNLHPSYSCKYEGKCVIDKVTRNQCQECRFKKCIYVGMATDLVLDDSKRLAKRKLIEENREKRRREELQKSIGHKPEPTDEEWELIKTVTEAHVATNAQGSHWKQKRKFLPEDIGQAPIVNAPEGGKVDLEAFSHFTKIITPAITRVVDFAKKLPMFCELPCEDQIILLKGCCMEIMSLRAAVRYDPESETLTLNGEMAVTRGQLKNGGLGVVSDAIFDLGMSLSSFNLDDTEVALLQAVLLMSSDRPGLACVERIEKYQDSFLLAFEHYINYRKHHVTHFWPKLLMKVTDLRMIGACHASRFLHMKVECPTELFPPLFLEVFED
Assay type: cell-based
Design: expressed in transfected cells; host or cells: CV-1 (monkey kidney)
From the text: Receptor expression plasmids used in the following cotransfection assays have been described previously (pRShTRβ [see Thompson, et al., Proc. Natl. Acad. Sci. U.S.A. 86: 3494-3498 (1989)]; pRShRARα [see Giguere, et al., Nature 330: 624-629 (1987)]; pRShRARβ and pRshRARγ [see Ishikawa, et al., Mol. Endocrinol, 4: 837-844 (1990)]; and pRShVDR, [Schule, et al., Cell 61: 497-504 (1990)]. A basal reporter plasmid ΔSV-CAT was constructed by replacing the TK promoter in TK-CAT [Damm, et al., Nature 339: 593-597 (1989)] with the SphI-HindIII fragment of the SV40 early promoter. All of the recombinant CAT reporter plasmids used herein harbor a single copy of the indicated oligonucleotides at the unique HindIII site upstream of the SV40 promoter. […] To improve production of receptor proteins in COS cells, a new eukaryotic expression vector pCMX was prepared by modifying the plasmid CDM8 [Seed, B., Nature 329: 840-842 (1987)]. The CDM8 was cut with MluI and StuI in order to release the DNA fragment encoding the CMV/T7 promoter, SV40 small t intron/poly A signal, polyoma virus enhancer/origin, and SV40 enhancer/origin. The resulting fragment was ligated to a larger fragment of PvuII-digested PUC19. An internal deletion was introduced between unique BamHI and BclI sites present in the DCM8 portion. The stuffer sequence flanked by XbaI sites was replaced with a synthetic polylinker coding for 5′-KpnI/Asp718-EcoRV-BamHI -MscI-NheI-3′, followed by a stretch of 5′-[…]-3′ (SEQ ID NO:48) which can function as a universal termination signal for protein translation. The coding sequence of the luciferase [de Wet, et al., Mol. Cell. Biol. 7: 725-737 (1987)] and human TRβ, RARα, and VDR was placed in the polylinker region of the pCMX, generating pCMX-LUC, Pcmx-Htrβ, pCMX-hRARα, and pCMX-hVDR, respectively. The translation start site of the RARα was modified to […] by attaching the synthetic linker encoding a consensus translation start signal [Hollenberg, et al., Cell 55: 899-906 (1988)].
For cotransfection assays, a monkey kidney cell line CV-1 was kept in Dulbecco's modified Eagle's medium (DMEM) supplemented with 10% charcoal-resin double split calf bovine serum. Transfections were performed via calcium-phosphate precipitation method as described by Umesono, et al. in Cell 57: 1139-1146 (1989), with 0.5 μg of a pRS receptor expression plasmid, 1.0 μg of a reporter CAT plasmid, 5 μg of pRAS-βGAL [Umesono, et al., Cell 57: 1139-1146 (1989)] as an internal control, and 8.5 μg of carrier plasmid pUC19. The cells were transfected for 8 hours; after washing the DNA precipitates, the cells were then incubated for an additional 36 hours with or without the ligand (T3, 100 nM; RA, 1 μM; 1,25-(OH)2 vitamin D3, 100 nM). Cell extracts were prepared for βGAL and CAT assays, as described by Umesono, et al., supra. Transfection of F9 teratocarcinoma cells was carried out employing a similar method except the cells were incubated for 12 hours in the presence of the DNA precipitates, and the RA was added at 1 μM for another 24 hours before harvesting the cells. 2, 5, and 4 μg of the reporter, pRAS-βGAL, and pUC19 were used, respectively.
Target hormone response elements described in FIG. 3 were synthesized as double-stranded oligonucleotides with an overhanging tetranucleotide (5′-agct-3′) at both ends. A single copy of these oligonucleotides was cloned at the unique HindIII site present in the basal promoter CAT construct ΔSV-CAT. Capitalized portions in the nucleotide sequences correspond to those found in the natural promoters except TREp and rGH21, which are synthetic. Bold letters indicate the “AGGTCA” motif and “X” denotes a nucleotide substitution from this motif.

| Substance | T3 responsiveness (in words) |
| --- | --- |
| GDR-4: identical to DR-4 except half-site changed to AGAACA, a GRE half-site (SEQ ID NO:28) (AGCTTCAGAACACAGGAGAACAGAGAGCT; DNA, backbone not given here; double-stranded DNA response element with agct overhangs, cloned into reporter) | completely inactive |
| TREp: optimized palindromic rat growth hormone TRE (SEQ ID NO:10) (AGCTTCAGGTCATGACCTGAGAGCT; DNA, backbone not given here; double-stranded response element with agct overhangs, cloned into reporter plasmid) [reference compound] | responsive to T3 |
| GDR-3: identical to DR-3 except half-site changed to AGAACA, a GRE half-site (SEQ ID NO:26) (AGCTTCAGAACAAGGAGAACAGAGAGCT; DNA, backbone not given here; double-stranded DNA response element with agct overhangs, cloned into reporter) | completely inactive |
